Literature values as cited in patent publication US20190151294A1, “TREATMENT OF ALCOHOLISM AND DEPRESSION AND/OR DYSPHORIC MOOD USING IBUDILAST” (MEDICINOVA, INC., priority 2016, published 2019).

System: P and HAD1 rats and mouse model of ethanol dependence
Conditions: in these models of elevated alcohol intake; cited from earlier work

| SMILES | selective reduction of ethanol drinking |
| --- | --- |
| CC[C@@H](C(N)=O)N1CCCC1=O [levatiracetam] | do not selectively reduce ethanol drinking |
| OCCOCCN1CCN(C2=Nc3ccccc3Sc3ccccc32)CC1 [quetiapine] | do not selectively reduce ethanol drinking |
